Results: publication PMC5218480 (PLoS ONE, 2017)

Tested on: MV-4-11 cells
Test: Gene expression microarray analysis (Affymetrix PrimeView) and GSEA
Type: cell-based, human
Set-up: RFU PODN (11730768_x_at) / Fold change /veh PODN (11730768_x_at) / RFU LINC00158 (11744669_a_at) / Fold change /veh LINC00158 (11744669_a_at) / RFU DUSP10 (11751237_a_at) / Fold change /veh DUSP10 (11751237_a_at) / RFU ID3 (11757404_x_at) / Fold change /veh ID3 (11757404_x_at) / RFU PLEKHG5 (11737974_s_at) / Fold change /veh PLEKHG5 (11737974_s_at) / RFU LRRC4B (11730491_at) / Fold change /veh LRRC4B (11730491_at) / RFU GIMAP4 (11747438_a_at) / Fold change /veh GIMAP4 (11747438_a_at) / RFU KRT8 (11758183_x_at) / Fold change /veh KRT8 (11758183_x_at) / RFU CNN1 (11734310_a_at) / Fold change /veh CNN1 (11734310_a_at) / RFU VPS37D (11726825_at) / Fold change /veh VPS37D (11726825_at) / RFU C10orf10 (11716522_x_at) / Fold change /veh C10orf10 (11716522_x_at) / RFU KIR2DL2 /// KIR2DL4 /// KIR2DL5A /// KIR2DL5B /// KIR2DS1 /// KIR2DS2 /// KIR2DS3 /// KIR2DS4 /// KIR3DL3 /// KIR3DL3 /// KIR3DS1 (11738374_at) / Fold change /veh KIR2DL2 /// KIR2DL4 /// KIR2DL5A /// KIR2DL5B /// KIR2DS1 /// KIR2DS2 /// KIR2DS3 /// KIR2DS4 /// KIR3DL3 /// KIR3DL3 /// KIR3DS1 (11738374_at) / RFU C1QL1 (11718748_at) / Fold change /veh C1QL1 (11718748_at) / RFU TMPRSS4 (11747572_a_at) / Fold change /veh TMPRSS4 (11747572_a_at) / RFU HAMP (11756126_x_at) / Fold change /veh HAMP (11756126_x_at) / RFU RNFT2 (11725882_a_at) / Fold change /veh RNFT2 (11725882_a_at) / RFU NR4A2 (11747474_a_at) / Fold change /veh NR4A2 (11747474_a_at) / RFU ABCC12 (11746883_a_at) / Fold change /veh ABCC12 (11746883_a_at) / RFU TMEM136 (11760407_x_at) / Fold change /veh TMEM136 (11760407_x_at) / RFU CLDN22 /// WWC2 (11732394_at) / Fold change /veh CLDN22 /// WWC2 (11732394_at) / RFU HLA-DPB1 (11760878_x_at) / Fold change /veh HLA-DPB1 (11760878_x_at) / RFU SPINT1 (11716480_a_at) / Fold change /veh SPINT1 (11716480_a_at) / RFU GAP43 (11754022_s_at) / Fold change /veh GAP43 (11754022_s_at) / RFU A4GNT (11735810_at) / Fold change /veh A4GNT (11735810_at) / RFU PRB3 (11715151_x_at) / Fold change /veh PRB3 (11715151_x_at) / RFU TUBB4B (11761932_at) / Fold change /veh TUBB4B (11761932_at) / RFU CAPN14 (11732068_a_at) / Fold change /veh CAPN14 (11732068_a_at) / RFU TMCC2 (11721928_a_at) / Fold change /veh TMCC2 (11721928_a_at) / RFU IRGQ (11745062_a_at) / Fold change /veh IRGQ (11745062_a_at) / RFU FAM174B (11720279_a_at) / Fold change /veh FAM174B (11720279_a_at) / RFU TMPRSS4 (11748680_a_at) / Fold change /veh TMPRSS4 (11748680_a_at) / RFU FAM212B (11763350_a_at) / Fold change /veh FAM212B (11763350_a_at) / RFU PLEKHG5 (11743358_a_at) / Fold change /veh PLEKHG5 (11743358_a_at) / RFU ZSCAN30 (11745921_a_at) / Fold change /veh ZSCAN30 (11745921_a_at) / RFU CMKLR1 (11741424_a_at) / Fold change /veh CMKLR1 (11741424_a_at) / RFU LOC101060620 /// MAPK8IP1 (11723275_at) / Fold change /veh LOC101060620 /// MAPK8IP1 (11723275_at) / RFU SPTSSB (11747773_x_at) / Fold change /veh SPTSSB (11747773_x_at) / RFU PRSS12 (11739890_at) / Fold change /veh PRSS12 (11739890_at) / RFU BIN1 (11741810_x_at) / Fold change /veh BIN1 (11741810_x_at) / RFU WNT11 (11732464_a_at) / Fold change /veh WNT11 (11732464_a_at) / RFU C10orf10 (11716521_a_at) / Fold change /veh C10orf10 (11716521_a_at) / RFU C5orf56 (11738089_at) / Fold change /veh C5orf56 (11738089_at) / RFU CYB561 (11721691_x_at) / Fold change /veh CYB561 (11721691_x_at) / RFU ANKRD19P (11752326_a_at) / Fold change /veh ANKRD19P (11752326_a_at) / RFU OR2T12 /// OR2T33 /// OR2T8 (11738714_s_at) / Fold change /veh OR2T12 /// OR2T33 /// OR2T8 (11738714_s_at) / RFU VCAN (11748164_a_at) / Fold change /veh VCAN (11748164_a_at) / RFU JSRP1 (11732532_at) / Fold change /veh JSRP1 (11732532_at) / RFU KRTAP10-11 (11738290_x_at) / Fold change /veh KRTAP10-11 (11738290_x_at) / RFU MYO3A (11730013_a_at) / Fold change /veh MYO3A (11730013_a_at) / RFU EBF3 (11725865_a_at) / Fold change /veh EBF3 (11725865_a_at) / RFU CAMK2N1 (11719241_x_at) / Fold change /veh CAMK2N1 (11719241_x_at) / RFU C5orf56 (11738088_a_at) / Fold change /veh C5orf56 (11738088_a_at) / RFU OLFML3 (11715873_a_at) / Fold change /veh OLFML3 (11715873_a_at) / RFU LOC100653217 /// NTM (11731650_a_at) / Fold change /veh LOC100653217 /// NTM (11731650_a_at) / RFU MAPK11 (11762145_a_at) / Fold change /veh MAPK11 (11762145_a_at) / RFU FIZ1 (11724087_x_at) / Fold change /veh FIZ1 (11724087_x_at) / RFU OASL (11726364_x_at) / Fold change /veh OASL (11726364_x_at) / RFU SOX15 (11748057_x_at) / Fold change /veh SOX15 (11748057_x_at) / RFU CD79A (11719716_a_at) / Fold change /veh CD79A (11719716_a_at) / RFU HIST1H1D (11736915_at) / Fold change /veh HIST1H1D (11736915_at) / RFU CASKIN2 (11723855_a_at) / Fold change /veh CASKIN2 (11723855_a_at) / RFU LOC730098 (11760151_x_at) / Fold change /veh LOC730098 (11760151_x_at) / RFU OR4N2 (11742367_at) / Fold change /veh OR4N2 (11742367_at) / RFU PRRT2 (11749266_a_at) / Fold change /veh PRRT2 (11749266_a_at) / RFU SNX32 (11753110_a_at) / Fold change /veh SNX32 (11753110_a_at) / RFU CDHR5 (11726645_a_at) / Fold change /veh CDHR5 (11726645_a_at) / RFU RCAN1 (11760418_a_at) / Fold change /veh RCAN1 (11760418_a_at) / RFU FAM167A (11723789_a_at) / Fold change /veh FAM167A (11723789_a_at) / RFU FAM26E (11764081_at) / Fold change /veh FAM26E (11764081_at) / RFU ISYNA1 (11749810_s_at) / Fold change /veh ISYNA1 (11749810_s_at) / RFU ACY1 (11761880_at) / Fold change /veh ACY1 (11761880_at) / RFU 11764098_at / Fold change /veh 11764098_at / RFU SAMD14 (11745864_x_at) / Fold change /veh SAMD14 (11745864_x_at) / RFU NPB (11741838_a_at) / Fold change /veh NPB (11741838_a_at) / RFU TMPRSS6 (11731388_a_at) / Fold change /veh TMPRSS6 (11731388_a_at) / RFU KRTAP10-2 (11738614_at) / Fold change /veh KRTAP10-2 (11738614_at) / RFU ARHGAP8 /// PRR5-ARHGAP8 (11727945_x_at) / Fold change /veh ARHGAP8 /// PRR5-ARHGAP8 (11727945_x_at) / RFU KRTAP5-7 /// NADSYN1 (11734609_at) / Fold change /veh KRTAP5-7 /// NADSYN1 (11734609_at) / RFU RASL12 (11751679_a_at) / Fold change /veh RASL12 (11751679_a_at) / RFU CDKN2B (11736163_a_at) / Fold change /veh CDKN2B (11736163_a_at) / RFU PRF1 (11729649_at) / Fold change /veh PRF1 (11729649_at) / RFU, ZNF638 /// ZNF638-IT1 / Fold change vs veh, ZNF638 /// ZNF638-IT1 / RFU, PANK3 / Fold change vs veh, PANK3 / RFU, SH3YL1 / Fold change vs veh, SH3YL1 / RFU, ZEB2 / Fold change vs veh, ZEB2 / RFU, NRIP1 / Fold change vs veh, NRIP1 / RFU, PTTG1IP / Fold change vs veh, PTTG1IP / RFU, CAPN2 / Fold change vs veh, CAPN2 / RFU, MED14 / Fold change vs veh, MED14 / RFU, SNORA58 / Fold change vs veh, SNORA58 / RFU, C1orf63 / Fold change vs veh, C1orf63 / RFU, LRRFIP1 / Fold change vs veh, LRRFIP1 / RFU, NDUFAF7 / Fold change vs veh, NDUFAF7 / RFU, SLC12A2 / Fold change vs veh, SLC12A2 / RFU, IBTK / Fold change vs veh, IBTK / RFU, ESF1 / Fold change vs veh, ESF1 / Fold change vs veh, TMEM50B / RFU, TAOK1 / Fold change vs veh, TAOK1 / RFU, ACBD3 / Fold change vs veh, ACBD3 / RFU, TMA16 / Fold change vs veh, TMA16 / RFU, RWDD3 / Fold change vs veh, RWDD3 / RFU, BCAT1 / Fold change vs veh, BCAT1 / RFU, EDEM3 / Fold change vs veh, EDEM3 / RFU, TMEM33 / Fold change vs veh, TMEM33 / RFU, WDR75 / Fold change vs veh, WDR75 / RFU, AHCTF1 / Fold change vs veh, AHCTF1 / RFU, TFRC / Fold change vs veh, TFRC / RFU, ZDHHC17 / Fold change vs veh, ZDHHC17 / RFU, NOM1 / Fold change vs veh, NOM1 / RFU, ARL8B / Fold change vs veh, ARL8B / RFU, ZBTB11 / Fold change vs veh, ZBTB11 / RFU, TAMM41 / Fold change vs veh, TAMM41 / RFU, KIAA1704 /// LOC100996395 / Fold change vs veh, KIAA1704 /// LOC100996395 / RFU, ING1 / Fold change vs veh, ING1 / RFU, TRMT61B / Fold change vs veh, TRMT61B / RFU, FUBP3 / Fold change vs veh, FUBP3 / RFU, TP53 / Fold change vs veh, TP53 / RFU, TNKS2 / Fold change vs veh, TNKS2 / RFU, ZFP14 / Fold change vs veh, ZFP14 / RFU, ACTR2 / Fold change vs veh, ACTR2 / RFU, PPP3R1 / Fold change vs veh, PPP3R1 / RFU, PIK3R1 / Fold change vs veh, PIK3R1 / RFU, HNRNPA1 / Fold change vs veh, HNRNPA1 / RFU, RNF170 / Fold change vs veh, RNF170 / RFU, ZNF28 / Fold change vs veh, ZNF28 / RFU, RNGTT / Fold change vs veh, RNGTT / RFU, OGT / Fold change vs veh, OGT / RFU, BRD1 / Fold change vs veh, BRD1 / RFU, MARS / Fold change vs veh, MARS / RFU, ZNF655 / Fold change vs veh, ZNF655 / RFU, FAHD1 / Fold change vs veh, FAHD1 / RFU, BDP1 / Fold change vs veh, BDP1 / RFU, LRRCC1 / Fold change vs veh, LRRCC1 / RFU, ARID1A / Fold change vs veh, ARID1A / RFU, ZNF146 / Fold change vs veh, ZNF146 / RFU, ZNF330 / Fold change vs veh, ZNF330 / RFU, GPN3 / Fold change vs veh, GPN3 / RFU, C9orf123 / Fold change vs veh, C9orf123 / RFU, N4BP2L2 / Fold change vs veh, N4BP2L2 / RFU, ARFIP1 / Fold change vs veh, ARFIP1 / RFU, FAM179B / Fold change vs veh, FAM179B / RFU, BCL10 / Fold change vs veh, BCL10 / RFU, UHRF1BP1L / Fold change vs veh, UHRF1BP1L / RFU, BET1 / Fold change vs veh, BET1 / RFU, CNOT2 / Fold change vs veh, CNOT2 / RFU, ZNF268 / Fold change vs veh, ZNF268 / Fold change vs veh, ZNF507 / RFU, DGCR2 / Fold change vs veh, DGCR2 / RFU, WDSUB1 / Fold change vs veh, WDSUB1 / Fold change vs veh, HSP90B1 /// MIR3652 / RFU, ADSS / Fold change vs veh, ADSS / RFU, GK / Fold change vs veh, GK / RFU, ZNF148 / Fold change vs veh, ZNF148 / RFU, TAF9 / Fold change vs veh, TAF9 / RFU, SLC1A5 / Fold change vs veh, SLC1A5 / RFU, SLMO2 / Fold change vs veh, SLMO2 / RFU, ABCC4 / Fold change vs veh, ABCC4 / RFU, LOC101060439 /// RAP1B / Fold change vs veh, LOC101060439 /// RAP1B / RFU, RFX7 / Fold change vs veh, RFX7 / RFU, GTPBP10 / Fold change vs veh, GTPBP10 / RFU, CNEP1R1 / Fold change vs veh, CNEP1R1 / RFU, BIVM-ERCC5 /// ERCC5 / Fold change vs veh, BIVM-ERCC5 /// ERCC5 / RFU, ILF3 / Fold change vs veh, ILF3 / RFU 11762660_at / Fold change /veh 11762660_at / RFU VCAN (11757783_s_at) / Fold change /veh VCAN (11757783_s_at) / RFU DDX43 (11728927_at) / Fold change /veh DDX43 (11728927_at) / RFU KRT8 (11758188_x_at) / Fold change /veh KRT8 (11758188_x_at) / RFU NKD1 (11759106_at) / Fold change /veh NKD1 (11759106_at) / RFU SRD5A1 (11742802_a_at) / Fold change /veh SRD5A1 (11742802_a_at) / RFU TPSAB1 /// TPSB2 (11721975_s_at) / Fold change /veh TPSAB1 /// TPSB2 (11721975_s_at) / RFU GSTM3 (11746129_a_at) / Fold change /veh GSTM3 (11746129_a_at) / RFU IL23R (11737362_x_at) / Fold change /veh IL23R (11737362_x_at) / RFU TMEM51 (11727254_a_at) / Fold change /veh TMEM51 (11727254_a_at) / RFU PIWIL2 (11732686_x_at) / Fold change /veh PIWIL2 (11732686_x_at) / RFU ORM1 (11744905_x_at) / Fold change /veh ORM1 (11744905_x_at) / RFU CCDC152 (11743942_at) / Fold change /veh CCDC152 (11743942_at) / RFU ECM1 (11717891_a_at) / Fold change /veh ECM1 (11717891_a_at) / RFU IL23R (11748794_a_at) / Fold change /veh IL23R (11748794_a_at) / RFU TNFAIP8L3 (11732012_x_at) / Fold change /veh TNFAIP8L3 (11732012_x_at) / RFU MBOAT4 (11741988_at) / Fold change /veh MBOAT4 (11741988_at) / RFU 11764193_at / Fold change /veh 11764193_at / RFU TMEM53 (11763286_at) / Fold change /veh TMEM53 (11763286_at) / RFU MAGEB2 (11727129_at) / Fold change /veh MAGEB2 (11727129_at) / RFU TMEM200A (11744735_a_at) / Fold change /veh TMEM200A (11744735_a_at) / RFU CCDC152 (11751479_a_at) / Fold change /veh CCDC152 (11751479_a_at) / RFU FAM211A (11726209_a_at) / Fold change /veh FAM211A (11726209_a_at) / RFU RGS16 (11746705_a_at) / Fold change /veh RGS16 (11746705_a_at) / RFU VCAN (11755009_s_at) / Fold change /veh VCAN (11755009_s_at) / RFU RHOB (11743442_s_at) / Fold change /veh RHOB (11743442_s_at) / RFU RGS16 (11720943_a_at) / Fold change /veh RGS16 (11720943_a_at) / RFU RGS16 (11720944_at) / Fold change /veh RGS16 (11720944_at) / RFU, VPS4B / Fold change vs veh, VPS4B / RFU, CREB1 / Fold change vs veh, CREB1 / RFU, DNAJC13 / Fold change vs veh, DNAJC13 / RFU, GNAQ / Fold change vs veh, GNAQ / RFU, CDK5R1 / Fold change vs veh, CDK5R1 / RFU, ZRANB3 / Fold change vs veh, ZRANB3 / RFU, CUL4A / Fold change vs veh, CUL4A / RFU, CCNY / Fold change vs veh, CCNY / RFU, UFL1 / Fold change vs veh, UFL1 / RFU, COG3 / Fold change vs veh, COG3 / RFU, DIAPH2 / Fold change vs veh, DIAPH2 / RFU, SKA2 / Fold change vs veh, SKA2 / RFU, AFF3 / Fold change vs veh, AFF3 / RFU, LMF1 / Fold change vs veh, LMF1 / RFU, IPO11 / Fold change vs veh, IPO11 / RFU, DFFB / Fold change vs veh, DFFB / RFU, FOXP1 / Fold change vs veh, FOXP1 / RFU, CARD8 / Fold change vs veh, CARD8 / RFU, STRN3 / Fold change vs veh, STRN3 / RFU, ADK / Fold change vs veh, ADK / RFU, RASSF2 / Fold change vs veh, RASSF2 / RFU, WIPF1 / Fold change vs veh, WIPF1 / RFU, LARP1B / Fold change vs veh, LARP1B / RFU, RASA1 / Fold change vs veh, RASA1 / RFU, RB1 / Fold change vs veh, RB1 / RFU, PPFIA1 / Fold change vs veh, PPFIA1 / RFU, MAT2A / Fold change vs veh, MAT2A / RFU, CCT5 / Fold change vs veh, CCT5 / RFU, WDR92 / Fold change vs veh, WDR92 / RFU, CUX1 / Fold change vs veh, CUX1 / RFU, TTC7A / Fold change vs veh, TTC7A / RFU, TMEM135 / Fold change vs veh, TMEM135 / RFU, DEPTOR / Fold change vs veh, DEPTOR / RFU, CPM / Fold change vs veh, CPM / RFU, DNAJB6 / Fold change vs veh, DNAJB6 / RFU, CACNA2D3 / Fold change vs veh, CACNA2D3 / RFU, DTX4 / Fold change vs veh, DTX4 / RFU, TFCP2 / Fold change vs veh, TFCP2 / RFU, GMCL1 /// GMCL1P1 / Fold change vs veh, GMCL1 /// GMCL1P1 / RFU, AEBP2 / Fold change vs veh, AEBP2 / RFU, SNHG1 /// SNORD22 /// SNORD25 /// SNORD26 /// SNORD27 /// SNORD28 /// SNORD29 /// SNORD31 / Fold change vs veh, SNHG1 /// SNORD22 /// SNORD25 /// SNORD26 /// SNORD27 /// SNORD28 /// SNORD29 /// SNORD31 / Fold change (Aza/veh), C12orf56 (ProbeSet 11735607_a_at) / Fold change (ACY-1035/veh), C12orf56 (ProbeSet 11735607_a_at) / Fold change (Aza/veh), FGFR1OP (ProbeSet 11751329_s_at) / Fold change (ACY-1035/veh), FGFR1OP (ProbeSet 11751329_s_at) / Fold change (Aza/veh), VPS36 (ProbeSet 11739960_a_at) / Fold change (ACY-1035/veh), VPS36 (ProbeSet 11739960_a_at) / RFU SYPL1 (11715823_x_at) / Fold change /veh SYPL1 (11715823_x_at) / RFU IGFBP7 (11715501_s_at) / Fold change /veh IGFBP7 (11715501_s_at) / RFU REEP3 (11722064_at) / Fold change /veh REEP3 (11722064_at) / RFU IGLL1 (11728026_x_at) / Fold change /veh IGLL1 (11728026_x_at): dose or concentration left out as unconfirmed
Settings: ProbeSet 11745428_a_at; LIST D

Nc1ccc(-c2cccs2)cc1NC(=O)c1ccc2c(c1)cc(C1CC1)n2CCN1CCOCC1 [ACY-1035]
Fold change vs veh, DFFB: 0.87
